Data as given in ChEMBL document CHEMBL1150702, “3,3',5'-Tri-O-methylpiceatannol and 4,3',5'-tri-O-methylpiceatannol: improvements over piceatannol in bioactivity” (J Nat Prod, 1987).
≈ marks a conversion by molar mass, not a printed value. Calls of active or inactive are those of the source. The rule behind the calls is not given here.

Experiments:
Artemia salina = assay: Toxicity in Artemia salina; format: organism-based; settings: in vivo
Mus musculus = assay: In vivo cytotoxicity against mouse 3PS cells up to 200 mg/kg relative to control; format: functional, organism-based; parameters: dose 200 mg/kg
[1] = system: Agrobacterium tumefaciens; assay: Antitumor activity against Agrobacterium tumefaciens-induced crown gall tumor in potato tubers by potato disk test; format: functional
[2] = Cytotoxicity against human 9KB cells; format: functional; settings: read-out: ED50 (the source's name)
[3] = Cytotoxicity against mouse 9PS cells; format: functional; settings: read-out: ED50 (the source's name)
[4] = In vivo cytotoxicity against mouse 3PS cells at 50 mg/kg relative to control; format: functional

Compound	LC50 (Artemia salina) [ppm]	Activity (Mus musculus)	inhibition (INH) [1] [%]	EC50 [2] [µg/mL]	EC50 [3] [µg/mL]	T/C [4] [%]
COc1cc(C=O)ccc1O [VANILLIN]	31	–	–	–	–	–
COc1ccc(C=O)cc1O [ISOVANILLIN]	31	–	–	–	–	–
COc1cc(/C=C/c2ccc(O)c(OC)c2)cc(OC)c1	> 1000	inactive	19	0.25 (≈ 0.873 µM)	–	–
COc1cc(/C=C/c2ccc(OC)c(O)c2)cc(OC)c1	2.8	–	22	< 0.01	0.1 (≈ 0.349 µM)	119
Oc1cc(O)cc(/C=C/c2ccc(O)c(O)c2)c1 [PICEATANNOL]	278	–	–	–	–	–
